Laboratory results taken from patent US20240240155A1, “Organoid-Derived Monolayers and Uses Thereof” (Hub Organoids IP B.V., priority 2021, published 2024).

Molecular target: T1, OCT2 (Homo sapiens, UniProt O15244)
T1 construct: endogenous in cells; host or cells: human kidney organoid-derived monolayer (donor kidney-C)
T1 sequence (O15244 1-555): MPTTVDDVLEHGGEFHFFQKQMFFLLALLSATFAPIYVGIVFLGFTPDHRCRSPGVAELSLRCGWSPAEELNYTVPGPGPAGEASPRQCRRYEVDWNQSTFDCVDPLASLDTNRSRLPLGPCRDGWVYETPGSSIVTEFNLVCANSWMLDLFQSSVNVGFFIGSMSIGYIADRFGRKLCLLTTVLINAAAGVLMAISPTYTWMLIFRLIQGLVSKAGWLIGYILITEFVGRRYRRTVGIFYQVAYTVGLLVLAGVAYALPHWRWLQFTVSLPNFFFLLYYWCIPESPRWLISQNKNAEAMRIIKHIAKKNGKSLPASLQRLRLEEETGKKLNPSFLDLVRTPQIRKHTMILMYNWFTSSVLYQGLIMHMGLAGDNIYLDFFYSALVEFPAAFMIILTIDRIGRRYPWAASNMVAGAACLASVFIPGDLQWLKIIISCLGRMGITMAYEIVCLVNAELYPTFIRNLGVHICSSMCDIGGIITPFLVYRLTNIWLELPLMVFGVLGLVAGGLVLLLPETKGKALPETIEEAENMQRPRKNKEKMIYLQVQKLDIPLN
Experiment: Rhodamine transport assay, kidney-C monolayers
Format: cell-based
Settings: 1 μM, 30 mins; day 7
Method: FIG. 28 illustrates fluorescence measurements for accumulated intracellular Rhodamine 123 for kidney-C cultures grown in KEM media, with or without addition of 1 uM decitabine (DAC) on day 2 after seeding, in the presence or absence of PSC833 (a specific P-gp inhibitor) and decynium-22 (a specific OCT2 inhibitor). A sample incubated with PBS only (without […]) was used as a negative control. RFU, relative fluorescence units.
Rhodamine transport from the basolateral compartment into kidney monolayers grown in either the KEM or DAC conditions as described in Example 9 was measured on day 7 after seeding in the presence or absence of the P-gp inhibitor PSC-833 and/or OCT2 inhibitor Decynium-22 as follows: • 1. Remove media and rinse cells using PBS. • 2. Add fresh buffer under one of the following conditions (37° C.): • 1. 1 μM Decynium-22, 30 mins, • 2. 1 μM PSC-833, 30 mins, • 3. 1 μM Decynium-22 and 1 μM PSC-833, 30 mins, or • 4. Untreated Control, 30 mins. • 3. Add Rhodamine 123 at a final concentration 250 nM to the basolateral compartment and incubate for 30 minutes at 37° C. • 4. Analyse cellular accumulation of Rhodamine 123 using fluorescence (Excitation λ 490 nm, Emission λ 520 nm). • 5. Assess accumulation differences.

cellular accumulation of Rhodamine: decreased accumulation
SMILES: CCN1/C(=C/c2ccc3ccccc3[n+]2CC)C=Cc2ccccc21.[I-] [Decynium-22]
